According to US10725042B2, “Methods of diagnosing and treating cancer” (Case Western Reserve University, priority 2012, dated 2020):

Tests used:
H1975 wild type cells = test: PCNA dissociation by bi-parametric flow cytometry, H1975 wild type cells; assay type: cell-based, human; conditions: treated samples
Description: Propidium iodine (PI) staining of methanol fixed cells was for cell cycle determinations. Where indicated, FITC labeled PCNA antibody (PCNA-FITC, Abcam) was added for PCNA detection. Uni-parameter (PI-only) and dual-parameter (PI+PCNA-FITC) analysis was performed on a Coulter flow cytometer (EPICS-XL-MCL). Cell cycle histograms (PI) and PCNA dot plots (PCNA-FITC) were de-convoluted from ≥20,000 events using FlowJo software.
Prolonged S-phase arrest is known to result in DNA DSB formation due to the collapse of stalled replication forks. We evaluated the stability of the DNA replication fork in pemetrexed treated lung cancer cells with native and reduced levels of UNG protein. Nucleotide incorporation experiments using CldU and IdU indicate decreased postpemetrexed treatment nucleotide incorporation (data not shown). […] Using bi-parametric flow cytometry we measured the dissociation of the replication fork processivity factor, PCNA at the single cell level in H1975 cells expressing UNG directed shRNA. Similar assays have been utilized to detect replication fork disassembly following etoposide and hydroxyurea exposure. PCNA dissociation was determined by the percentage of cells in S phase having low PCNA (red box, FIG. 11d). […] As a complimentary experiment, we examined the expression of chromatin-bound PCNA after pemetrexed treatment by western blot of chromatin cellular extracts.

H1975 cells = test: Colony survival assay, H1975 parental cells; assay type: cell-based; conditions: Homo sapiens, NCI-H1975, read-out: pemetrexed IC50
Description: (§1) For cells in suspension, colony survival was determined by crystal violet staining of colonies formed after 10-day exposure of 5×10^3 cells to pemetrexed in soft agar. For adherent cells, colony survival was determined by methylene blue staining of colonies formed after 10-day exposure of 100 cells to pemetrexed in 6-well culture dishes. Only colonies containing ≥50 cells were counted. Data points represent percent of colonies relative to untreated control averaged over 3 experiments.

H1975 67 shUNG cells = test: Colony survival assay, H1975 67 shUNG cells; assay type: cell-based; conditions: Homo sapiens, NCI-H1975, read-out: pemetrexed IC50
Description: as §1
(§2) UNG directed shRNA and siRNA plasmids were purchased from Origene. Transfection was carried out according to manufacturer specifications. Stably transfected clones (shRNA) were selected with puromycin with subsequent expansion of a well-isolated colony of cells.

A549 siUNG cells = test: Colony survival assay, A549 siUNG cells; assay type: cell-based, human
Description: as §1, §2

DLD1/UDG−/− cells = test: Colony survival (clonogenic) assay, UDG−/− cells; assay type: cell-based, human
Description: Recombinant virus was grown in 293T cells and subsequently used to infect DLD1 cells. Selection of positively transfected clones was achieved by the addition of G418 to the culture medium. A second infection of transfected clones with Cre-recombinase adenovirus caused excision of the neomycin resistance cassette. Dflag cell line was produced by transfection of UDG expression vector in UDG^−/− cells to restore UDG activity.
Tumor cells (500-2000/dish) were plated and treated with pemetrexed (0-400 nM), 5-fluorouracil (0-20 μM), temozolomide (0-1500 μM), or cisplatin (0-40 μM). After 7 days, surviving colonies were stained with methylene blue for 30 min at room temperature and the colonies containing more than 50 cells were counted to generate survival curves.

A549 parental cells = test: Colony survival assay, A549 parental cells (Example 2); assay type: cell-based; conditions: Homo sapiens, read-out: pemetrexed IC50
Description: as §1

With `Nc1nc2[nH]cc(CCc3ccc(C(=O)N[C@@H](CCC(=O)O)C(=O)O)cc3)c2c(=O)[nH]1` [pemetrexed] the “cells in S phase having low PCNA” value (H1975 wild type cells) was “less than 1%”, the IC50 (H1975 cells) was 777 nM and the IC50 (H1975 67 shUNG cells) was 146 nM. The “sensitivity of A549 siRNA cells compared to parental cells” value (A549 siUNG cells; A549 siUNG vs parental) was 7 fold, the IC50 (A549 siUNG cells; Homo sapiens, A549 siUNG, colony survival, read-out: pemetrexed IC50) was 60.5 nM and the IC50 (DLD1/UDG−/− cells; Homo sapiens, DLD-1, UDG−/− cells, interpolated from dose-response survival curves, read-out: IC50 value for pemetrexed) was 20 nM. For the same compound, the “sensitivity of UDG−/− cells relative to UDG+/+ cells” value (DLD1/UDG−/− cells; UDG−/− vs UDG+/+) was 10 times and the IC50 (A549 parental cells) was 416 nM.
